ChEMBL document CHEMBL5108051, “Improving the Antimicrobial Performance of Amphiphilic Cationic Antimicrobial Peptides Using Glutamic Acid Full-Scan and Positive Charge Compensation Strategies” (J Med Chem, 2022)
≈ marks a conversion by molar mass, not a printed value. Calls of active or inactive are those of the source. The rule behind the calls is not given here. Bridge positions count the residues as written; N and C are the ends. Square brackets hold non-standard residues; d marks the D form. Peptide text beside a SMILES is read from it. * marks the point of attachment. X1 = CC[C@H](C)CCCCC(=O)*; Dab = NCC[C@H](N)C(=O)O

Columns and labels:
Staphylococcus aureus [1] = experiment: Antibacterial activity against Staphylococcus aureus ATCC 25923 assessed as growth inhibition measured after 18 to 24 hrs by CLSI based broth microdilution method; assay type: functional; details: time 18-24 hrs
Escherichia coli [2] = experiment: Antibacterial activity against gentamicin resistant Escherichia coli ATCC 25922 assessed as fractional inhibitory concentration index in presence of vancomycin by checkerboard assay; assay type: functional
Erythrocyte = experiment: Hemolytic activity against mouse RBC measured after 1 hrs; assay type: toxicity, cell-based
Staphylococcus aureus [3] = experiment: Induction of cell membrane damage in Staphylococcus aureus ATCC 25923 assessed as increase in nucleic acid leakage by microplate reader assay; assay type: functional, organism-based; details: time 0-6 hrs, TDE = time-dependent effect
Cell membrane [4] = experiment: Induction of cell membrane disruption in Escherichia coli ATCC 25922 assessed as cell morphological damage measured after 30 mins by […] electron microscope analysis; assay type: subcellular
Bacillus subtilis = experiment: Antibacterial activity against Bacillus subtilis ATCC 23857 assessed as growth inhibition measured after 18 to 24 hrs by CLSI based broth microdilution method; assay type: functional; details: time 18-24 hrs
Staphylococcus aureus [5] = experiment: Antibacterial activity against gentamicin resistant Staphylococcus aureus ATCC 25923 assessed as fractional inhibitory concentration index in presence of kanamycin by checkerboard assay; assay type: functional
Staphylococcus aureus [6] = experiment: Antibacterial activity against rifampin resistant Staphylococcus aureus ATCC 25923 assessed as fractional inhibitory concentration index in presence of rifampin by checkerboard assay; assay type: functional
Cell membrane [7] = experiment: Induction of cell membrane disruption in Escherichia coli ATCC 25922 assessed as increase in PI uptake measured after 30 to 120 mins by propidium iodide staining based FACS flow cytometry analysis (reference value: 6.0 %); assay type: subcellular; details: time 30-120 min
Staphylococcus aureus [8] = experiment: In vivo antimicrobial activity against Staphylococcus aureus ATCC 25923 infected in BALB/C mouse pulmonary infection model at 5 to 10 mg/kg, ip; assay type: functional, organism-based; details: dose 5-10 mg/kg
Cell membrane [9] = experiment: Induction of cell membrane disruption in Escherichia coli ATCC 25922 assessed as cell morphological damage measured after 120 mins by […] electron microscope analysis; assay type: subcellular
Staphylococcus aureus [10] = experiment: Antibacterial activity against Staphylococcus aureus ATCC 25923 assessed as fractional inhibitory concentration index in presence of kanamycin by checkerboard assay; assay type: functional
Escherichia coli [11] = experiment: Antibacterial activity against gentamicin resistant Escherichia coli ATCC 25922 assessed as fractional inhibitory concentration index in presence of kanamycin by checkerboard assay; assay type: functional
Escherichia coli [12] = experiment: Antibacterial activity against Escherichia coli ATCC 25922 assessed as fractional inhibitory concentration index in presence of vancomycin by checkerboard assay; assay type: functional
Escherichia coli [13] = experiment: Antibacterial activity against Escherichia coli ATCC 25922 assessed as fractional inhibitory concentration index in presence of kanamycin by checkerboard assay; assay type: functional
Escherichia coli [14] = experiment: Antibacterial activity against Escherichia coli ATCC 25922 assessed as growth inhibition measured after 18 to 24 hrs by CLSI based broth microdilution method; assay type: functional; details: time 18-24 hrs
Pseudomonas aeruginosa = experiment: Antibacterial activity against Pseudomonas aeruginosa ATCC 27853 assessed as growth inhibition measured after 18 to 24 hrs by CLSI based broth microdilution method; assay type: functional; details: time 18-24 hrs
Staphylococcus aureus [15] = experiment: Antibacterial activity against rifampin resistant Staphylococcus aureus ATCC 25923 assessed as fractional inhibitory concentration index in presence of vancomycin by checkerboard assay; assay type: functional
[16] = Retention time of the compound by RP-HPLC analysis; assay type: physicochemical
Staphylococcus aureus [17] = experiment: Antibacterial activity against Staphylococcus aureus ATCC 25923 assessed as fractional inhibitory concentration index in presence of gentamicin by checkerboard assay; assay type: functional
Staphylococcus aureus [18] = experiment: Antibacterial activity against gentamicin resistant Staphylococcus aureus ATCC 25923 assessed as fractional inhibitory concentration index in presence of gentamicin by checkerboard assay; assay type: functional
Cell membrane [19] = experiment: Induction of cytoplasmic membrane depolarization in Escherichia coli ATCC 25922 assessed as increase in fluorescence intensity measured within 1 min by DiSC3-5 dye based fluorescence method; assay type: subcellular
Cell membrane [20] = experiment: Induction of cell membrane disruption in Staphylococcus aureus ATCC 25923 assessed as increase in PI uptake measured after 30 to 120 mins by propidium iodide staining based FACS flow cytometry analysis (reference value: 15%); assay type: subcellular; details: time 30-120 min
[21] = Acute toxicity in BALB/c mouse assessed as pathological changes in heart at 20 to 80 mg/kg, ip administered as single dose measured for 7 days by H and E staining method; assay type: organism-based; details: in vivo, 168 h, dose 20-80 mg/kg, time 7 day
Escherichia coli [22] = experiment: Antibacterial activity against gentamicin resistant Escherichia coli ATCC 25922 assessed as fractional inhibitory concentration index in presence of gentamicin by checkerboard assay; assay type: functional
Escherichia coli [23] = experiment: Antibacterial activity against Escherichia coli ATCC 25922 assessed as fractional inhibitory concentration index in presence of gentamicin by checkerboard assay; assay type: functional
[24] = Acute toxicity in BALB/c mouse assessed as pathological changes in liver at 20 to 80 mg/kg, ip administered as single dose measured for 7 days by H and E staining method; assay type: organism-based; details: in vivo, 168 h, dose 20-80 mg/kg, time 7 day
Escherichia coli [25] = experiment: Antibacterial activity against rifampin resistant Escherichia coli ATCC 25922 assessed as fractional inhibitory concentration index in presence of rifampin by checkerboard assay; assay type: functional
Staphylococcus aureus [26] = experiment: Antibacterial activity against rifampin resistant Staphylococcus aureus ATCC 25923 assessed as fractional inhibitory concentration index in presence of gentamicin by checkerboard assay; assay type: functional
Escherichia coli [27] = experiment: Antibacterial activity against Escherichia coli ATCC 25922 assessed as resistance development measured after 15 passages at sub-MIC concentration by resistance development assay; assay type: functional, organism-based
Staphylococcus aureus [28] = experiment: Antibacterial activity against rifampin resistant Staphylococcus aureus ATCC 25923 assessed as fractional inhibitory concentration index in presence of kanamycin by checkerboard assay; assay type: functional
Cell membrane [29] = experiment: Induction of inner membrane permeabilization in Escherichia coli ML-35 ATCC 43837 assessed as increase in absorbance at 1 to 4 times MIC measured at 420 nm in presence of ONPG by microplate reader assay; assay type: subcellular; details: DDE = dose-dependent effect
[30] = Acute toxicity in BALB/c mouse assessed as mortality at 80 mg/kg, ip administered as single dose measured for 7 days; assay type: organism-based; details: in vivo, time 7 day; for mortality at 168 h: BALB/c, read-out: Activity
Escherichia coli [31] = experiment: Antibacterial activity against Escherichia coli ATCC 25922 assessed as fractional inhibitory concentration index in presence of rifampin by checkerboard assay; assay type: functional
Escherichia coli [32] = experiment: Antibacterial activity against rifampin resistant Escherichia coli ATCC 25922 assessed as fractional inhibitory concentration index in presence of kanamycin by checkerboard assay; assay type: functional
Cell membrane [33] = experiment: Induction of outer membrane permeabilization to NPN in Staphylococcus aureus ATCC 25923 cells assessed as increase in fluorescence intensity measured within 1 min by NPN fluorescent dye based microplate reader assay; assay type: subcellular
Cell membrane [34] = experiment: Induction of cell membrane disruption in Staphylococcus aureus ATCC 25923 assessed as cell morphological damage measured after 120 mins by […] electron microscope analysis; assay type: subcellular
[35] = Stability of the compound in mouse serum at 10 mM assessed as half life by RP-HPLC analysis; assay type: ADME, cell-free
Staphylococcus aureus [36] = experiment: Antibacterial activity against gentamicin resistant Staphylococcus aureus ATCC 25923 assessed as fractional inhibitory concentration index in presence of rifampin by checkerboard assay; assay type: functional

SMILES	MIC (Staphylococcus aureus [1]) [µM]	fractional inhibitory concentration index (FICI) (Escherichia coli [2])	MHC10 (Erythrocyte) [µM]	Activity (Staphylococcus aureus [3])	Activity (Cell membrane [4])	MIC (Bacillus subtilis) [µM]	fractional inhibitory concentration index (FICI) (Staphylococcus aureus [5])	fractional inhibitory concentration index (FICI) (Staphylococcus aureus [6])	Activity (Cell membrane [7]) [%]	Activity (Staphylococcus aureus [8])	Activity (Cell membrane [9])	fractional inhibitory concentration index (FICI) (Staphylococcus aureus [10])	fractional inhibitory concentration index (FICI) (Escherichia coli [11])	fractional inhibitory concentration index (FICI) (Escherichia coli [12])	fractional inhibitory concentration index (FICI) (Escherichia coli [13])	MIC (Escherichia coli [14]) [µM]	MIC (Pseudomonas aeruginosa) [µM]	fractional inhibitory concentration index (FICI) (Staphylococcus aureus [15])	Retention_time [16] [min]	fractional inhibitory concentration index (FICI) (Staphylococcus aureus [17])	other results
CC[C@H](C)[C@H](NC(=O)[C@@H]1CCCN1C(=O)[C@H](CC(C)C)NC(=O)[C@@H](N)Cc1ccccc1)C(=O)N[C@H](C(=O)N[C@@H](C)C(=O)N[C@@H](CCCCN)C(=O)N[C@@H](CC(C)C)C(=O)N[C@@H](CC(C)C)C(=O)N[C@@H](CO)C(=O)NCC(=O)N[C@@H](CC(C)C)C(=O)N[C@@H](CC(C)C)C(N)=O)C(C)C (H-FLPIVAKLLSGLL-NH2)	4 (≈ 5.53 µg/mL)	0.75	12.53	Tde	Active	4 (≈ 5.53 µg/mL)	0.75	1	78.3	Active	Active	0.75	1	0.625	1.125	32 (≈ 44.2 µg/mL)	128 (≈ 177 µg/mL)	0.75	19.445	1	fractional inhibitory concentration index (FICI) (Staphylococcus aureus [18]): 0.75; Activity (Cell membrane [19]): Active; Activity (Cell membrane [20]): 24.1%; Activity [21]: Non-Toxic; fractional inhibitory concentration index (FICI) (Escherichia coli [22]): 1; fractional inhibitory concentration index (FICI) (Escherichia coli [23]): 1; Activity [24]: Non-Toxic; fractional inhibitory concentration index (FICI) (Escherichia coli [25]): 1; fractional inhibitory concentration index (FICI) (Staphylococcus aureus [26]): 0.5625; Activity (Escherichia coli [27]): Active; fractional inhibitory concentration index (FICI) (Staphylococcus aureus [28]): 0.5625; Activity (Cell membrane [29]): Dde; mortality at 168 h [30]: 100%; fractional inhibitory concentration index (FICI) (Escherichia coli [31]): 1.25; fractional inhibitory concentration index (FICI) (Escherichia coli [32]): 0.625; Activity (Cell membrane [33]): Active; Activity (Cell membrane [34]): Active; half-life at 10000 µM [35]: 5.55 h; fractional inhibitory concentration index (FICI) (Staphylococcus aureus [36]): 0.75
CC(C)C[C@H](NC(=O)[C@H](CC(C)C)NC(=O)[C@H](CCC(=O)O)NC(=O)[C@H](CCCCN)NC(=O)[C@H](CC(C)C)NC(=O)[C@H](CC(C)C)NC(=O)[C@H](CCCCN)NC(=O)[C@H](C)NC(=O)[C@@H](NC(=O)[C@H](CCCCN)NC(=O)[C@@H]1CCCN1C(=O)[C@H](CC(C)C)NC(=O)[C@@H](N)Cc1ccccc1)C(C)C)C(N)=O (H-FLPKVAKLLKELL-NH2)	8 (≈ 12.1 µg/mL)	0.75	202	Tde	Active	4 (≈ 6.04 µg/mL)	1	0.75	83.1	Active	Active	0.625	1.25	0.375	0.625	8 (≈ 12.1 µg/mL)	8 (≈ 12.1 µg/mL)	1	16.475	0.625	fractional inhibitory concentration index (FICI) (Staphylococcus aureus [18]): 0.75; Activity (Cell membrane [19]): Active; Activity (Cell membrane [20]): 49.3%; Activity [21]: Non-Toxic; fractional inhibitory concentration index (FICI) (Escherichia coli [22]): 1.25; fractional inhibitory concentration index (FICI) (Escherichia coli [23]): 0.5; Activity [24]: Non-Toxic; fractional inhibitory concentration index (FICI) (Escherichia coli [25]): 0.75; fractional inhibitory concentration index (FICI) (Staphylococcus aureus [26]): 0.5; Activity (Escherichia coli [27]): Active; fractional inhibitory concentration index (FICI) (Staphylococcus aureus [28]): 0.625; Activity (Cell membrane [29]): Dde; mortality at 168 h [30]: 40%; fractional inhibitory concentration index (FICI) (Escherichia coli [31]): 0.625; fractional inhibitory concentration index (FICI) (Escherichia coli [32]): 0.75; Activity (Cell membrane [33]): Active; Activity (Cell membrane [34]): Active; half-life at 10000 µM [35]: 9.64 h; fractional inhibitory concentration index (FICI) (Staphylococcus aureus [36]): 0.625
CC[C@H](C)CCCCC(=O)N[C@@H](CCN)C(=O)N[C@H](C(=O)N[C@@H](CCN)C(=O)N[C@H]1CCNC(=O)[C@H]([C@@H](C)O)NC(=O)[C@H](CCN)NC(=O)[C@H](CCN)NC(=O)[C@H](CC(C)C)NC(=O)[C@@H](Cc2ccccc2)NC(=O)[C@H](CCN)NC1=O)[C@@H](C)O (X1-[Dab]T[Dab][Dab][Dab][dF]L[Dab][Dab]T; lactam 4-C)	16 (≈ 19.3 µg/mL)	0.3125	> 256	Tde	Active	4 (≈ 4.81 µg/mL)	0.625	1	38.5	Active	Active	0.75	0.375	0.375	0.375	4 (≈ 4.81 µg/mL)	2 (≈ 2.41 µg/mL)	1	13.125	0.75	fractional inhibitory concentration index (FICI) (Staphylococcus aureus [18]): 0.5; Activity (Cell membrane [19]): Active; Activity (Cell membrane [20]): 45.8%; Activity [21]: Non-Toxic; fractional inhibitory concentration index (FICI) (Escherichia coli [22]): 0.625; fractional inhibitory concentration index (FICI) (Escherichia coli [23]): 0.375; Activity [24]: Non-Toxic; fractional inhibitory concentration index (FICI) (Escherichia coli [25]): 0.5625; fractional inhibitory concentration index (FICI) (Staphylococcus aureus [26]): 0.375; Activity (Escherichia coli [27]): Active; fractional inhibitory concentration index (FICI) (Staphylococcus aureus [28]): 0.625; Activity (Cell membrane [29]): Dde; Activity ([30]; ip, 80 mg/kg, 168 h): Toxic; fractional inhibitory concentration index (FICI) (Escherichia coli [31]): 0.1875; fractional inhibitory concentration index (FICI) (Escherichia coli [32]): 0.375; Activity (Cell membrane [33]): Active; Activity (Cell membrane [34]): Active; half-life at 10000 µM [35]: 12.5 h; fractional inhibitory concentration index (FICI) (Staphylococcus aureus [36]): 0.5625
